The values that follow come from patent US20230150977A1, “PYRIDAZINONE COMPOUNDS FOR THE TREATMENT OF NEUROMUSCULAR DISEASES” (Edgewise Therapeutics, Inc., priority 2020, published 2023).

Experiment [1] has as its system embryos from zebrafish model of DMD. The following applies: Li and Arner, PLoSONE, 2015; cited from earlier work.
For experiment [2], the target named is skeletal myofibrils (Rabbit Psoas) myosin ATPase. The experiment can be described thus: Skeletal Myofibril ATPase Assay. Format: biochemical. The settings on record: PK/LDH coupled, absorbance at 340 nm. As for the experimental part: Overview: Myosin ATPase activity was assessed by using a coupled reaction system, in which ADP generated by the myosin ATPase function was coupled to the disappearance of NADH through the pyruvate kinase/lactate dehydrogenase (PK-LDH) system. Myosin ATPase activity produces ADP, which was used as a substrate for PK to produce pyruvate and regenerate ATP. The pyruvate was then used as a substrate by LDH to oxidize NADH to NAD+. The rate of the reaction was monitored through the time-dependent disappearance of NADH using absorbance at 340 nm. Inhibition of ATPase activity by the assayed compounds was indicated by a reduced rate of NADH loss, relative to vehicle-treated controls, over the experimental time window. To assess the selectivity of the assayed compounds for skeletal myofibrils, the compounds were counter-screened in cardiac myofibrils.
Materials: The following stock solutions and reagents were used in the Skeletal Myofibril ATPase Assay:
Stock Solutions of pCa buffer. Combine PIPES, CaCl2, and EGTA solutions with 70 mL of water. Adjust pH to 7.0 and bring final volume to 100 mL.
Buffer A & Buffer B. Buffers were stored on ice until use.
Skeletal Myofibril ATPase Assay Procedure: BSA, ATP, NADH, PEP, and DTT solutions were thawed at room temperature, then transferred to ice. Pellet-frozen myofibrils (approximately twice the required volume) were transferred into a sufficiently large tube and capped. Myofibrils were thawed by rolling in a water bath for approximately 15 min at room temperature and cooled on ice. Buffers A and B were prepared by adjusting volumes as necessary for required number of wells and stored on ice. 0.5 μL of the compounds to be assayed were added into wells of a 384-well plate. Buffers A and B were mixed by inversion immediately prior to use, then 25 μL of each was dispensed using a Multidrop dispenser (Buffer A first, then Buffer B). The absorbance within the wells was measured at 340 nm, using a kinetic protocol in which the wells are read every 1.5-2 min for 1 h. The reaction rate was qualitatively assessed by subtracting the minimum absorbance value from the maximum value for each well, using either the SoftMax Pro plate reader software or a spreadsheet program such as Excel. Using GraphPad Prism 8.0, the data was normalized, with 100% activity defined as the absorbance change in the 1% DMSO vehicle wells and 0% assigned to no change in absorbance over the course of the experiment. The normalized data were fit to a variable-slope four-parameter logistic model, constraining the bottom to be 0 or greater. Compounds of Table 1 to 3 were tested and results of the assay appear in Table 4 herein. A=IC50 is less than or equal to 10 μM; B=IC50 is greater than 10 μM and less than 100 μM; C=IC50 is greater than 100 μM.

Regarding `Cc1ccc(S(=O)(=O)NCc2ccccc2)cc1` [BTS, N-benzyl-p-tolyl-sulfonamide], in experiment [1], the “protection of muscles from pathological muscle derangement” value is listed as “protect muscles from pathological muscle derangement”. In turn, `O=C(CCn1nc(-c2ccccc2)ccc1=O)NC1CCCCC1` [Compound 36, N-cyclohexyl-3-(6-oxo-3-phenylpyridazin-1(6H)-yl)propanamide] came in with an IC50 in experiment [2] above 100 µM. `COc1ccc(-c2ccc(=O)n(CCNC(=O)Nc3cccs3)n2)cc1` [Compound 37, 1-(2-(3-(4-methoxyphenyl)-6-oxopyridazin-1(6H)-yl)ethyl)-3-(thiophen-2-yl)urea]: the IC50 in experiment [2] was above 100 µM.
